What was measured:
Format in all cases: physicochemical
[1] = Moisture sorption (hygroscopicity), water sorption and desorption
Experimental: Water sorption and desorption studies were conducted on an automated vapor sorption analyzer (TA instruments Q5000 SA). The microbalance was calibrated using a 100 mg standard weight. The relative humidity (RH) sensor was calibrated at 5.0, 11.3, 32.8, 52.8, 75.3, and 84.3% RH (25° C.) using saturated salt solutions. Approximately 10-20 mg of the powder sample was placed in the quartz sample holder and dried at 3% RH at 60° C. The attainment of equilibrium was assumed when the weight change of the sample was <0.001 wt % in 5 min or by a maximum equilibration time of 300 minutes. […] Again, the attainment of equilibrium was assumed when the weight change of the sample was <0.001 wt % in 5 min or by a maximum equilibration time of 300 minutes. The weight gain at 60% RH is based on the weight after the initial drying step.
Water sorption and desorption studies of PF-07220060 monohydrate (Form 2), prepared as described in Example 2, were conducted according to General Method 6.
Water sorption and desorption studies of PF-07220060 hydrate (Form 1), prepared as described in Example 5B, were conducted according to General Method 6.
Comparative hygroscopicity experiments were performed using moisture sorption analysis according to General Method 6. PF-07220060 Forms 1, 2, 6, and 8 were evaluated using moisture sorption at 25° C., 60% RH. A form change at the completion of the run was not detected for any of the forms by PXRD.

[2] = Thermal stability by Differential Scanning Calorimetry (DSC)
Experimental: Modulated Differential scanning calorimetry (DSC) measurements were performed with Discovery DSC (TA instruments) equipped with a refrigerated cooling accessory. All the experiments were performed in standard/Tzero aluminum pans. The cell constant was determined using indium and temperature calibration was performed using indium and tin as standards. All the measurements were done under continuous dry nitrogen purge (50 mL/min). Approximately 1-5 mg of solid sample was weighed into a Tzero aluminum pan, sealed non-hermetically and heated from −40° C. to 220° C. at 10° C./min heating rate. The experimental data were analyzed using commercially available software (TA Universal Analysis 2000/Trios software, TA Instruments).
(§1) Thermal stability data were obtained through thermogravimetric analysis (TGA) according to General Method 4, and Differential Scanning Calorimetry (DSC) scan according to General Method 5A.

[3] = Thermal stability by thermogravimetric analysis (TGA); conditions: listed as Form 2 (monohydrate), monohydrate
Experimental: Thermogravimetric analysis was conducted using a Discovery TGA (TA instruments) thermogravimetric analyzer. Samples of approximately 10 mg were weighed into aluminum pans and heated from ambient ([…]) to 250° C. at 10° C./minute heating rate under nitrogen purge (10 mL/min for both sample chamber and balance).
as §1

[4] = Accelerated solid state chemical/humidity stability by UPLC; conditions: for % impurity RRT 0.89 / % impurity RRT 1.31: UPLC
Experimental: Accelerated solid state chemical stability and photostability of PF-07220060 monohydrate (Form 2) was investigated. Solid state chemical/humidity stability of PF-07220060 monohydrate (Form 2) was evaluated by UPLC (ultra performance liquid chromatography) analysis after storage at 70° C./5% RH and 70° C./75% RH for one week, and at 40° C./5% RH and 40° C./75% RH for 6 weeks. The percentage of identified impurity peaks at the indicated RRT (relative retention time) values were determined under the challenge conditions versus a control sample stored at ambient temperature. RRT is calculated by dividing the retention time (RT) of the impurity by the RT of Form 2. Data at 70° C./5% RH and 70° C./75% RH for one week are provided in Table 14 and Table 15, respectively.

[5] = Competitive slurry experiments in 2-propanol/1% water; conditions: based on the competition slurry experiments
Experimental: Competitive slurry experiments were performed between Form 1 and Form 2 (Entry 1), and between Form 6 and Form 2 (Entry 2), in 2-propanol/1% water. Entry 1: […] The solids were collected with vacuum filtration and analyzed with PXRD. PXRD data was consistent with PF-07220060 monohydrate (Form 2). Entry 2: […] The solids were collected with vacuum filtration and analyzed with PXRD. PXRD data was consistent with PF-07220060 monohydrate (Form 2).

[6] = Solid form of control and stressed samples by powder X-ray diffraction
Experimental: Powder X-ray diffraction analysis was conducted using a Bruker AXS D8 Endeavor diffractometer equipped with a copper radiation source. The divergence slit was set at 15 mm continuous illumination. Diffracted radiation was detected by a PSD-Lynx Eye detector, with the detector PSD opening set at 2.99 degrees. The X-ray tube voltage and amperage were set to 40 kV and 40 mA respectively. Data was collected at the copper (Cu) wavelength (CuKα=[…]) in the Theta-Theta goniometer from 3.0 to 40.0 degrees 2-Theta. A step size of 0.01 degrees and a step time of 1.0 second was used for Form 2, Form 6 and Form 8. A step size of 0.02 degrees and a step time of 0.3 seconds was used for Form 11. The antiscatter screen was set to a fixed distance of 1.5 mm. Samples were rotated during data collection. Samples were prepared by placing them in a silicon low background sample holder and rotated during collection. Data were collected using Bruker DIFFRAC Plus software and analysis was performed by EVA diffract plus software.
Powder X-ray diffraction was used to assess the solid form of the control and the stressed samples.

[7] = control sample stored at ambient temperature
[8] = stressed samples: 70° C./75% RH and 70° C./5% RH for one week, 40° C./75% RH and 40° C./5% RH for 6 weeks

- form change at the completion of the moisture sorption run by PXRD ([1]; 25° C., 60% RH): not detected
- Weight gain (%) ([1]; 25 °C, RH 0%, listed as PF-07220060 monohydrate (Form 2), monohydrate): 0.00%
- Weight gain (%) ([1]; 25 °C, RH 10%, desorption, listed as PF-07220060 monohydrate (Form 2), monohydrate): 0.54%
- Weight gain (%) ([1]; 25 °C, RH 10%, sorption, listed as PF-07220060 monohydrate (Form 2), monohydrate): 0.45%
- Weight gain (%) ([1]; 25 °C, RH 20%, desorption, listed as PF-07220060 monohydrate (Form 2), monohydrate): 0.55%
- Weight gain (%) ([1]; 25 °C, RH 20%, sorption, listed as PF-07220060 monohydrate (Form 2), monohydrate): 0.49%
- Weight gain (%) ([1]; 25 °C, RH 30%, desorption, listed as PF-07220060 monohydrate (Form 2), monohydrate): 0.56%
- Weight gain (%) ([1]; 25 °C, RH 30%, sorption, listed as PF-07220060 monohydrate (Form 2), monohydrate): 0.51%
- Weight gain (%) ([1]; 25 °C, RH 40%, desorption, listed as PF-07220060 monohydrate (Form 2), monohydrate): 0.57%
- Weight gain (%) ([1]; 25 °C, RH 40%, sorption, listed as PF-07220060 monohydrate (Form 2), monohydrate): 0.52%
- Weight gain (%) ([1]; 25 °C, RH 50%, desorption, listed as PF-07220060 monohydrate (Form 2), monohydrate): 0.58%
- Weight gain (%) ([1]; 25 °C, RH 50%, sorption, listed as PF-07220060 monohydrate (Form 2), monohydrate): 0.54%
- Weight gain (%) ([1]; 25 °C, RH 60%, desorption, listed as PF-07220060 monohydrate (Form 2), monohydrate): 0.60%
- Weight gain (%) ([1]; 25 °C, RH 60%, sorption, listed as PF-07220060 monohydrate (Form 2), monohydrate): 0.56%
- Weight gain (%) ([1]; 25 °C, RH 70%, desorption, listed as PF-07220060 monohydrate (Form 2), monohydrate): 0.60%
- Weight gain (%) ([1]; 25 °C, RH 70%, sorption, listed as PF-07220060 monohydrate (Form 2), monohydrate): 0.57%
- Weight gain (%) ([1]; 25 °C, RH 80%, desorption, listed as PF-07220060 monohydrate (Form 2), monohydrate): 0.61%
- Weight gain (%) ([1]; 25 °C, RH 80%, sorption, listed as PF-07220060 monohydrate (Form 2), monohydrate): 0.59%
- Weight gain (%) ([1]; 25 °C, RH 90%, listed as PF-07220060 monohydrate (Form 2), monohydrate): 0.62%
- Weight gain (%) ([1]; 60 °C, RH 0% (initial drying step)): 0.00%
- Weight Gain (%) at 25° C., 60% RH ([1]; comparative summary of Forms 1, 2, 6 and 8, monohydrate): <1%
- hygroscopicity relative to Form 8 and Form 1 ([1]; moisture sorption at 25° C., 60% RH): reduced hygroscopicity
- thermal stability relative to Form 1 and Form 8 ([2]; TGA and DSC): improved thermal stability
- Thermal stability via DSC (° C.) ([2]; listed as Form 2 (monohydrate), monohydrate): 50 °C
- Thermal stability via TGA (° C.) [3]: 60 °C
- % impurity RRT 0.89 ([4]; 70° C./5% RH (one week)): 0.57%
- % impurity RRT 1.31 ([4]; 70° C./5% RH (one week)): 0.99%
- % impurity RRT 0.89 ([4]; 70° C./75% RH (one week)): 0.58%
- % impurity RRT 1.31 ([4]; 70° C./75% RH (one week)): 1.00%
- % impurity RRT 0.89 [4, 7]: 0.57%
- % impurity RRT 1.31 [4, 7]: 1.00%
- change in appearance compared to the control sample [4, 8]: No significant change in appearance
- growth of individual impurities [4, 8]: ≤ 0.2%
- total impurities [4, 8]: ≤ 2.0%
- relative humidity above which the form is thermodynamically stable [5]: above 15 % RH
- solid form change by PXRD ([6]; 40° C./5% RH for six weeks): disorder
- solid form change by PXRD ([6]; 40° C./75% RH for six weeks): No form change was detected
- solid form change by PXRD ([6]; 70° C./5% RH for one week): Slight disorder
- solid form change by PXRD ([6]; 70° C./75% RH for one week): No form change was detected
SMILES: CC(C)n1c(C(C)(C)O)nc2c(F)cc(-c3nc(N[C@@H]4CCOC[C@H]4O)ncc3Cl)cc21 [Form 2, 1,5-anhydro-3-({5-chloro-4-[4-fluoro-2-(2-hydroxypropan-2-yl)-1-(propan-2-yl)-1H-benzimidazol-6-yl]pyrimidin-2-yl}amino)-2,3-dideoxy-D-threo-pentitol monohydrate]

Reference: patent US12570641B2, “Solid forms of a CDK4 inhibitor” (Pfizer Inc., priority 2020, dated 2026)
